Reference: ChEMBL document CHEMBL1149567, “Synthesis and pharmacological evaluation of condensed heterocyclic 6-substituted-1,2,4-triazolo[3,4-b]-1,3,4-thiadiazole derivatives of naproxen” (Bioorg Med Chem Lett, 2007)

Key:
Rattus norvegicus [1] = experiment: Toxicity assessed as ulcerogenic activity in po dosed rat; type: organism-based; settings: in vivo
Rattus norvegicus [2] = experiment: Analgesic activity in po dosed rat; type: functional
Rattus norvegicus [3] = experiment: Antiinflammatory activity against carrageenan-induced paw edema in po dosed rat after 4 hrs; type: functional
Rattus norvegicus [4] = species on record: Rattus norvegicus; experiment: Effect on lipid peroxidation in rat gastric mucosa assessed as malondialdehyde level per 100 mg of tissue; type: functional, organism-based
Rattus norvegicus [5] = experiment: Analgesic activity in rat at 30 mg/kg, po; settings: read-out: Inhibition
Rattus norvegicus [6] = experiment: Antiinflammatory activity against carrageenan-induced paw edema in rat at 30 mg/kg, po after 4 hrs; settings: read-out: Inhibition

SMILES	UI (Rattus norvegicus [1])	Inhibition (Rattus norvegicus [2]) [%]	Inhibition (Rattus norvegicus [3]) [%]	Activity (Rattus norvegicus [4]) [nmol]	inhibition in vivo at 30 mg/kg (Rattus norvegicus [5]) [%]	inhibition in vivo at 30 mg/kg (Rattus norvegicus [6]) [%]
COc1ccc2cc(C(C)c3nnc4sc(-c5ccc(Cl)cc5)nn34)ccc2c1 (stereo unspecified)	0.583	26.7	80.3	5.27		
COc1ccc2cc(C(C)c3nnc4sc(COc5ccc(Cl)cc5Cl)nn34)ccc2c1 (stereo unspecified)	0.667	80.3	78.02	5.38		
COc1ccc2cc(C(C)c3nnc4sc(Nc5ccc(C)cc5C)nn34)ccc2c1 (stereo unspecified)	0.833	33.3	76.51	6.11		
COc1ccc2cc(C(C)c3nnc4sc(-c5ccccc5)nn34)ccc2c1 (stereo unspecified)	0.5	89.5	81.05	4.86		
COc1ccc2cc(C(C)c3nnc4sc(Nc5ccccc5)nn34)ccc2c1 (stereo unspecified)			43.93			
COc1ccc2cc([C@H](C)C(=O)O)ccc2c1 [NAPROXEN]				9.04	73.5	81.8
COc1ccc2cc(C(C)c3nnc4sc(-c5ccc(Cl)cc5Cl)nn34)ccc2c1 (stereo unspecified)	0.75	37.2	68.93	5.63		
COc1ccc2cc(C(C)c3nnc4sc(-c5ccccc5N)nn34)ccc2c1 (stereo unspecified)			54.54			
COc1ccc2cc(C(C)c3nnc4sc(-c5ccc(N)cc5)nn34)ccc2c1 (stereo unspecified)	0.833	58.1	78.02	5.85		
COc1ccc2cc(C(C)c3nnc4sc(Nc5ccc(F)cc5)nn34)ccc2c1 (stereo unspecified)			40.14			
CCCCNc1nn2c(C(C)c3ccc4cc(OC)ccc4c3)nnc2s1 (stereo unspecified)			40.9			
